The test system of one assay is IL-4. Briefly: Cytokine assay: IL-4 release from PHA-L stimulated human PBMCs. In kind it is cell-based. The following applies: read-out: IL4 IC50. The method in brief:
(§1)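 Compound effect on mitogen-driven cytokine release is tested in cryopreserved human PBMCs stimulated for 48 h with PHA-L (3.5 μg/mL final). Released cytokine is detected by HTRF.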

The next assay relates to IFNγ. Briefly: Cytokine assay: IFNγ release from PHA-L stimulated human PBMCs. In kind it is cell-based. The method in brief:
as §1

For assay [1], the target named is PDE4B (aa 152-484, Uniprot ID Q07343) (Homo sapiens (Human), UniProt Q07343). Briefly: PDE4 SPA assay (scintillation proximity assay). As to conditions: read-out: PDE4B2 IC50. It is filed as biochemical. The method in brief:
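Scintillation proximity read-out after a 30 min room-temperature reaction of ~81.6 pM PDE4B catalytic fragment (aa 152-484) with 1 μM tritiated/unlabeled cAMP, pH 7.5 Tris buffer with MgCl2 and Brij 35. Compound given ~10 min beforehand, 4-fold dilutions, ~2% DMSO; IC50 from four-parameter logistic curve.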
For orientation: Scintillation proximity formats need no separation of bound from free tracer.

The next assay deals with IL-13. Briefly: Cytokine assay: IL-13 release from PHA-L stimulated human PBMCs. In kind it is cell-based. The following applies: read-out: IL13 IC50. The method in brief: as §1

Structures are written as SMILES. Read-outs that look alike come from different tables or passages of the source.

Chain of PDE4B (aa 152-484, Uniprot ID Q07343) (Q07343 324-656): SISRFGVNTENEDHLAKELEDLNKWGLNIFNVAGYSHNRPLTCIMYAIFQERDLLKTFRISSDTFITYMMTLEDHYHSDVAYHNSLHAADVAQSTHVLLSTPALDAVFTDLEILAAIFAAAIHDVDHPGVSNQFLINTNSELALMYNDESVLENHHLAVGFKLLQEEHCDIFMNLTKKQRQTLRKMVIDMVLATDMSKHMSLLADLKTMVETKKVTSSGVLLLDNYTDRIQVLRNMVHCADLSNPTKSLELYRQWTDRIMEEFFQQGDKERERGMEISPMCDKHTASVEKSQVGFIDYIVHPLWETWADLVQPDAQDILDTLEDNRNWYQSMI

As for `CCOc1cc(-c2cccc(C3COB(O)C3)c2)ccc1OC` (stereo not drawn) [Example 77, 4-(3′-ethoxy-4′-methoxy-[1,1′-biphenyl]-3-yl)-1,2-oxaborolan-2-ol], the IC50 – broadly, the concentration needed to halve the response being measured – in the assay on IL-4 (Homo sapiens, PBMC) was 40.8 nM; with IFNγ (Homo sapiens, PBMC) it was 2.61 nM; in assay [1], 2.4 nM; with IL-13 (Homo sapiens, PBMC), 415 nM.
As to `COc1ccc(-c2cncc(C3COB(O)C3)c2)cc1OC1CCSC1` (stereo not drawn) [Example 78, 4-(5-(4-methoxy-3-((tetrahydrothiophen-3-yl)oxy)phenyl)pyridin-3-yl)-1,2-oxaborolan-2-ol], the IC50 in the assay on IL-4 (Homo sapiens, PBMC) was found to be 19.1 nM; with IFNγ it was 1.35 nM; in assay [1], 0.55 nM; in the assay with IL-13, 416 nM.
For `COc1ccc(-c2cncc(C3COB(O)C3)c2)cc1OC1CCSC1` (stereo not drawn) [Example 79, 4-(5-(4-methoxy-3-((tetrahydrothiophen-3-yl)oxy)phenyl)pyridin-3-yl)-1,2-oxaborolan-2-ol], the IC50 with IL-4 came out at 13.3 nM; with IFNγ, 0.82 nM; in assay [1], 1.38 nM; in the assay on IL-13 it was 748 nM.
For `COc1ccc(-c2cncc(C3COB(O)C3)c2)cc1OC1CCSC1` (stereo not drawn) [Example 80, 4-(5-(4-methoxy-3-((tetrahydrothiophen-3-yl)oxy)phenyl)pyridin-3-yl)-1,2-oxaborolan-2-ol], the IC50 in the assay with IL-4 was 19.8 nM; in the assay with IFNγ, 4.62 nM; in assay [1], 1.34 nM; with IL-13 it was 2150 nM.
With `CCCOc1c(OC)ccc(-c2cncc(C3COB(O)C3)c2)c1F` (stereo not drawn) [Example 81, 4-(5-(2-fluoro-4-methoxy-3-propoxphenyl)pyridin-3-yl)-1,2-oxaborolan-2-ol], the IC50 amounted to 54.4 nM with IL-4; 1.62 nM with IFNγ (Homo sapiens, PBMC); 2.36 nM in assay [1]; 858 nM with IL-13.
As for `CCCOc1cc(-c2cncc(C3COB(O)C3)c2C)ccc1OC` (stereo not drawn) [Example 84, 4-(5-(4-methoxy-3-propoxyphenyl)-4-methylpyridin-3-yl)-1,2-oxaborolan-2-ol], the IC50 in the assay on IL-4 (Homo sapiens, PBMC) stood at 0.9 nM; in the assay with IFNγ (Homo sapiens, PBMC) it was 0.44 nM; in assay [1], 1.24 nM; in the assay with IL-13 (Homo sapiens, PBMC) it was 444 nM.
Regarding `CCCOc1c(OC)ccc(-c2cccc(C3COB(O)C3)n2)c1C#N` (stereo not drawn) [Example 86, 6-(6-(2-hydroxy-1,2-oxaborolan-4-yl)pyridin-2-yl)-3-methoxy-2-propoxybenzonitrile], the IC50 with IL-4 (Homo sapiens, PBMC) came to 105 nM; in the assay on IFNγ (Homo sapiens, PBMC), 5 nM; in assay [1] it was 7.26 nM; with IL-13 (Homo sapiens, PBMC), 1330 nM.
With `CCCOc1cc(-c2cccc(C3COB(O)C3)c2)ccc1OC` (stereo not drawn) [Example 88, 4-(4′-methoxy-3′-propoxy-[1,1′-biphenyl]-3-yl)-1,2-oxaborolan-2-ol], the IC50 was determined as 63.7 nM in the assay with IL-4 (Homo sapiens, PBMC); 6.14 nM in the assay on IFNγ (Homo sapiens, PBMC); 2.64 nM in assay [1]; 609 nM with IL-13 (Homo sapiens, PBMC).
`CCOc1cc(-c2nc(C3COB(O)C3)cs2)c(F)cc1OC` (stereo not drawn) [Example 91, 4-(2-(5-ethoxy-2-fluoro-4-methoxyphenyl)thiazol-4-yl)-1,2-oxaborolan-2-ol]: the IC50 in the assay with IL-4 (Homo sapiens, PBMC) amounted to 5.9 nM; in the assay with IFNγ (Homo sapiens, PBMC), 3.92 nM; in assay [1], 3 nM; in the assay on IL-13 (Homo sapiens, PBMC), 460 nM.
Regarding `COc1cnc(-c2cccc(C3COB(O)C3)c2)nc1OC1CCCC1` (stereo not drawn) [Example 93, 4-(3-(4-(cyclopentyloxy)-5-methoxypyrimidin-2-yl)phenyl)-1,2-oxaborolan-2-ol], the IC50 in the assay with IL-4 (Homo sapiens, PBMC) was 9.87 nM; in the assay on IFNγ (Homo sapiens, PBMC) it was 1.66 nM; in assay [1] it was 0.5 nM; in the assay with IL-13 (Homo sapiens, PBMC) it was 460 nM.
As to `CCOc1c(OC)ccc(-c2cncc(C3COB(O)C3)c2)c1C(F)(F)F` (stereo not drawn) [Example 94, 4-(5-(3-ethoxy-4-methoxy-2-(trifluoromethyl)phenyl)pyridin-3-yl)-1,2-oxaborolan-2-ol], the IC50 in the assay on IL-4 (Homo sapiens, PBMC) was 9.58 nM; in the assay with IFNγ (Homo sapiens, PBMC), 3.88 nM; in assay [1] it was 12.5 nM; with IL-13 (Homo sapiens, PBMC), 606 nM.
For `CCOc1ccc(-c2cncc(C3COB(O)C3)c2)cc1OCC` (stereo not drawn) [Example 96, 4-(5-(3,4-diethoxyphenyl)pyridin-3-yl)-1,2-oxaborolan-2-ol], the IC50 in the assay on IL-4 (Homo sapiens, PBMC) amounted to 48.9 nM; in the assay on IFNγ (Homo sapiens, PBMC), 5.27 nM; in assay [1], 1.69 nM; in the assay on IL-13 (Homo sapiens, PBMC), 965 nM.
Turning to `CSc1ccc(-c2cncc(C3COB(O)C3)c2)cc1OC1CCCC1` (stereo not drawn) [Example 99, 4-(5-(3-(cyclopentyloxy)-4-(methylthio)phenyl)pyridin-3-yl)-1,2-oxaborolan-2-ol], the IC50 with IL-4 (Homo sapiens, PBMC) is 44.3 nM; in the assay with IFNγ (Homo sapiens, PBMC), 9.42 nM; in assay [1] it was 1.37 nM; in the assay with IL-13 (Homo sapiens, PBMC), 957 nM.
For the compound `CCCOc1cc(-c2cncc(C3COB(O)C3)c2)ccc1OCC` (stereo not drawn) [Example 104, 4-(5-(4-ethoxy-3-propoxyphenyl)pyridin-3-yl)-1,2-oxaborolan-2-ol], the IC50 with IL-4 (Homo sapiens, PBMC) is 29.4 nM; with IFNγ (Homo sapiens, PBMC), 5.46 nM; in assay [1], 3.58 nM; in the assay on IL-13 (Homo sapiens, PBMC) it was 750 nM.
Consider `COc1ccc(-c2cncc(C3COB(O)C3)c2)c(F)c1OC` (stereo not drawn) [Example 107, 4-(5-(2-fluoro-3,4-dimethoxyphenyl)pyridin-3-yl)-1,2-oxaborolan-2-ol], for which the IC50 was 27.1 nM in the assay on IL-4 (Homo sapiens, PBMC); 4.17 nM in the assay with IFNγ (Homo sapiens, PBMC); 2.41 nM in assay [1]; 613 nM with IL-13.
For `COc1ccc(-c2cncc(C3COB(O)C3)c2)c(F)c1OC` (stereo not drawn) [Example 109, 4-(5-(2-fluoro-3,4-dimethoxyphenyl)pyridin-3-yl)-1,2-oxaborolan-2-ol], the IC50 in the assay with IL-4 came out at 22.7 nM; in the assay on IFNγ, 6.24 nM; in assay [1] it was 4.18 nM; in the assay on IL-13, 1270 nM.
For the compound `CCCCCOc1cc(-c2cccc(C3COB(O)C3)c2)ccc1OC` (stereo not drawn) [Example 110, 4-(4′-methoxy-3′-(pentyloxy)-[1,1′-biphenyl]-3-yl)-1,2-oxaborolan-2-ol], the IC50 with IL-4 (Homo sapiens, PBMC) is 48.4 nM; in the assay with IFNγ (Homo sapiens, PBMC), 5.1 nM; in assay [1], 0.61 nM; in the assay with IL-13 (Homo sapiens, PBMC), 496 nM.
Consider `CCCOc1cc(-c2cncc(C3COB(O)C3)c2)ccc1SC` (stereo not drawn) [Example 112, 4-(5-(4-(methylthio)-3-propoxyphenyl)pyridin-3-yl)-1,2-oxaborolan-2-ol], for which the IC50 came to 79.9 nM in the assay with IL-4; 8.1 nM in the assay on IFNγ; 1.41 nM in assay [1]; 588 nM with IL-13 (Homo sapiens, PBMC).
For `CCCOc1cc(-c2cncc(C3COB(O)C3)n2)ccc1OC` (stereo not drawn) [Example 115, 4-(6-(4-methoxy-3-propoxyphenyl)pyrazin-2-yl)-1,2-oxaborolan-2-ol], the IC50 with IL-4 (Homo sapiens, PBMC) was 38.4 nM; in the assay with IFNγ (Homo sapiens, PBMC), 1.68 nM; in assay [1], 1.1 nM; in the assay on IL-13 (Homo sapiens, PBMC) it was 509 nM.
The corresponding values for `COc1cc(-c2cccc(C3COB(O)C3)c2)cc(C#N)c1OC` (stereo not drawn) [Example 117, 3′-(2-hydroxy-1,2-oxaborolan-4-yl)-4,5-dimethoxy-[1,1′-biphenyl]-3-carbonitrile] are 64.2 nM, 10 nM, 1.8 nM and 520 nM.
As to `CCOc1cc(-c2cncc(C3COB(O)C3)c2)cc(C#N)c1OC` (stereo not drawn) [Example 118, 3-ethoxy-5-(5-(2-hydroxy-1,2-oxaborolan-4-yl)pyridin-3-yl)-2-methoxybenzonitrile], the IC50 with IL-4 (Homo sapiens, PBMC) amounted to 9.78 nM; in the assay on IFNγ (Homo sapiens, PBMC), 2.65 nM; in assay [1], 0.9 nM; with IL-13 (Homo sapiens, PBMC), 531 nM.

(Values after US11559538B2, “Substituted 1,2-oxaborolan-2-ols as PDE4 inhibitors” (Pfizer Inc., priority 2018, dated 2023).)
